In brackets after ≈: the same amount, converted by molar mass. Several values for one entry are separate records, joined by “and”; a condition that tells them apart may be missing. Identical values can stand only once. Blank lines part the entries; values can stand above or below the compound they belong to.
Legend:
Experiment in all cases: ≥ marks a high value that may be exact or a test limit, other limits are often not marked, values filed in µg/mL are converted to µM
[1] = tested on: Pseudomonas aeruginosa M1426
[2] = tested on: Pseudomonas aeruginosa M917
Pseudomonas aeruginosa = tested on: Pseudomonas aeruginosa
[3] = tested on: Pseudomonas aeruginosa M76
[4] = tested on: Pseudomonas aeruginosa ATCC 9027
Candida albicans = tested on: Candida albicans
[5] = tested on: Salmonella enterica serovar Typhimurium
[6] = tested on: Pseudomonas aeruginosa R70
Pseudomonas fluorescens = tested on: Pseudomonas fluorescens
[7] = tested on: Pseudomonas aeruginosa M1251
[8] = tested on: Stenotrophomonas maltophilia
[9] = tested on: Staphylococcus aureus ATCC 6538
Staphylococcus aureus = tested on: Staphylococcus aureus
Escherichia coli UB1005 = tested on: Escherichia coli UB1005
[10] = tested on: Achromobacter xylosoxidans
Escherichia coli MG1655 = tested on: Escherichia coli MG1655
Vibrio harveyi = tested on: Vibrio harveyi
Aeromonas hydrophila = tested on: Aeromonas hydrophila
[11] = tested on: Escherichia coli ATCC 2592
[12] = tested on: Candida albicans ATCC 200955
[13] = tested on: Micrococcus luteus ATCC 9341
Candida tropicalis = tested on: Candida tropicalis
[14] = tested on: Candida albicans ATCC 36232
[15] = tested on: Candida krusei ATCC 200917
Candida glabrata = tested on: Candida glabrata
[16] = tested on: Candida krusei ATCC 90878
Cryptococcus neoformans = tested on: Cryptococcus neoformans
[17] = tested on: Staphylococcus epidermidis C621
[18] = tested on: Klebsiella pneumoniae ATCC 700603
Bacillus subtilis C971 = tested on: Bacillus subtilis C971
[19] = tested on: Pseudomonas aeruginosa H188
[20] = tested on: Salmonella typhimurium C587
[21] = tested on: Salmonella typhimurium C610
[22] = tested on: Staphylococcus aureus SAP 0017
Escherichia coli DC2 = tested on: Escherichia coli DC2
[23] = tested on: Staphylococcus aureus ATCC 25923
[24] = tested on: Streptococcus pneumoniae ATCC 49619
[25] = tested on: Escherichia coli ATCC 25922
[26] = tested on: Pseudomonas aeruginosa ATCC 27853
[27] = tested on: Pseudomonas aeruginosa H187
[28] = tested on: Enterococcus faecalis C625
[29] = tested on: Corynebacterium xerosis C875
[30] = tested on: Staphylococcus epidermidis ATCC 12228
[31] = tested on: Acinetobacter baumannii ATCC 19606
Escherichia coli BW25113 = tested on: Escherichia coli BW25113
[32] = tested on: Escherichia coli BW25113 ΔsbmA

Compound: CC(C)C[C@H](NC(=O)[C@H](CC(C)C)NC(=O)[C@H](CCCCN)NC(=O)[C@H](CCCCN)NC(=O)[C@H](C)NC(=O)[C@H](CC(C)C)NC(=O)[C@H](CCCCN)NC(=O)[C@H](C)NC(=O)[C@H](CC(C)C)NC(=O)[C@H](CC(C)C)NC(=O)[C@H](CCCCN)NC(=O)[C@H](C)NC(=O)[C@@H](N)Cc1ccccc1)C(N)=O [FAKLLAKLAKKLL]
MIC [1]: 5.49 µM (≈ 7.99 µg/mL)
MIC [2]: 11 µM (≈ 16 µg/mL)
MIC (Pseudomonas aeruginosa): 5.49 µM (≈ 7.99 µg/mL)
MIC [3]: 2.75 µM (≈ 4 µg/mL)
MIC [4]: 68.6 µM (≈ 99.9 µg/mL)
MIC (Candida albicans): 5.49 µM (≈ 7.99 µg/mL)
MIC [5]: 2.75 µM (≈ 4 µg/mL)
MIC [6]: 2.75 µM (≈ 4 µg/mL)
MIC (Pseudomonas fluorescens): 5.49 µM (≈ 7.99 µg/mL)
MIC [7]: 2.75 µM (≈ 4 µg/mL)
MIC [8]: 1.37 µM (≈ 2 µg/mL)
MIC [9]: 3.43 µM (≈ 5 µg/mL)
MIC (Staphylococcus aureus): 2.75 µM (≈ 4 µg/mL)
MIC (Escherichia coli UB1005): 2.75 µM (≈ 4 µg/mL)
MIC [10]: ≥ 43.9 µM

Compound: CC[C@H](C)[C@H](NC(=O)[C@H](C)NC(=O)[C@H](CCCN=C(N)N)NC(=O)[C@H](Cc1cnc[nH]1)NC(=O)[C@@H](NC(=O)[C@H](C)NC(=O)[C@H](CCCN=C(N)N)NC(=O)[C@@H](NC(=O)CNC(=O)[C@H](Cc1cnc[nH]1)NC(=O)[C@H](CO)NC(=O)[C@@H](NC(=O)[C@H](Cc1c[nH]c2ccccc12)NC(=O)CNC(=O)[C@@H](NC(=O)[C@@H](NC(=O)[C@H](Cc1cnc[nH]1)NC(=O)[C@H](C)NC(=O)[C@@H](NC(=O)[C@@H](N)Cc1ccccc1)[C@@H](C)CC)[C@@H](C)CC)[C@@H](C)CC)[C@@H](C)CC)C(C)C)[C@@H](C)CC)C(=O)N[C@@H](Cc1cnc[nH]1)C(N)=O [FIAHIIGWISHGVRAIHRAIH]
MIC (Escherichia coli MG1655): 16 µM and ≥ 32 µM
MIC (Vibrio harveyi): ≥ 32 µM
MIC (Aeromonas hydrophila): ≥ 128 µM

Compound: CC(C)[C@H](NC(=O)[C@H](CCCCN)NC(=O)[C@H](Cc1ccccc1)NC(=O)[C@@H](NC(=O)[C@@H](NC(=O)[C@H](CCCCN)NC(=O)[C@@H](N)CCCCN)C(C)C)C(C)C)C(=O)N[C@@H](CCCCN)C(=O)N[C@@H](Cc1ccccc1)C(=O)N[C@@H](CCCCN)C(=O)N[C@@H](CCCCN)C(N)=O [KKVVFKVKFKK]
MIC [11]: 7.98 µM (≈ 11 µg/mL)
MIC [12]: 3.2 µM (≈ 4.41 µg/mL)
MIC [13]: 2.27 µM (≈ 3.13 µg/mL)
MIC [4]: 4.35 µM (≈ 6 µg/mL)
MIC (Candida albicans): 5.8 µM (≈ 7.99 µg/mL)
MIC (Candida tropicalis): 2.9 µM (≈ 4 µg/mL)
MIC [14]: 2.27 µM and 3.21 µM and 4.53 µM
MIC [9]: 2.27 µM (≈ 3.13 µg/mL)
MIC [15]: 1.6 µM (≈ 2.2 µg/mL)
MIC (Candida glabrata): 23.2 µM (≈ 32 µg/mL)
MIC [16]: 1.6 µM (≈ 2.2 µg/mL)
MIC (Cryptococcus neoformans): 2.9 µM (≈ 4 µg/mL)

Other lines, results leading:

MIC [17]: 1.11 µM (≈ 3.25 µg/mL)
MIC [18]: 4 µM (≈ 11.7 µg/mL)
MIC (Bacillus subtilis C971): 0.692 µM (≈ 2.03 µg/mL)
MIC [19]: 2.21 µM (≈ 6.49 µg/mL)
MIC [20]: 2.21 µM (≈ 6.49 µg/mL)
MIC [21]: 0.864 µM (≈ 2.54 µg/mL)
MIC [22]: 1.73 µM (≈ 5.07 µg/mL)
MIC (Escherichia coli DC2): 0.864 µM (≈ 2.54 µg/mL)
MIC [23]: 2.77 µM and 5.66 µM
MIC [24]: 2 µM (≈ 5.87 µg/mL)
MIC [25]: 2.83 µM (≈ 8.3 µg/mL)
MIC (Escherichia coli UB1005): 0.864 µM (≈ 2.54 µg/mL)
MIC [26]: 8 µM (≈ 23.5 µg/mL)
MIC [27]: 1.73 µM (≈ 5.07 µg/mL)
MIC [28]: 5.53 µM (≈ 16.2 µg/mL)
MIC [29]: 0.692 µM (≈ 2.03 µg/mL)
MIC [30]: 2.83 µM (≈ 8.3 µg/mL)
Compound: CC[C@H](C)[C@H](NC(=O)[C@H](C)NC(=O)[C@H](CCCCN)NC(=O)[C@H](CC(C)C)NC(=O)[C@H](C)NC(=O)[C@@H](NC(=O)[C@H](Cc1cnc[nH]1)NC(=O)[C@H](CC(C)C)NC(=O)[C@@H](NC(=O)[C@@H](NC(=O)[C@H](CCCCN)NC(=O)[C@H](C)NC(=O)[C@H](C)NC(=O)[C@H](CO)NC(=O)[C@H](CCCCN)NC(=O)[C@H](Cc1ccccc1)NC(=O)[C@@H](NC(=O)[C@H](CCCCN)NC(=O)[C@H](CC(C)C)NC(=O)[C@H](Cc1ccccc1)NC(=O)[C@H](CO)NC(=O)[C@H](CCCCN)NC(=O)[C@H](Cc1c[nH]c2ccccc12)NC(=O)[C@H](CCCCN)NC(C)=O)[C@@H](C)O)[C@@H](C)O)C(C)C)[C@@H](C)O)C(=O)N[C@@H](CO)C(=O)N[C@@H](CO)C(N)=O [KWKSFLKTFKSAAKTVLHTALKAISS]

MIC [18]: 4 µM (≈ 9.02 µg/mL)
MIC [31]: 32 µM (≈ 72.2 µg/mL)
MIC [23]: 32 µM (≈ 72.2 µg/mL)
MIC (Escherichia coli BW25113): 2 µM (≈ 4.51 µg/mL)
MIC [32]: 3 µM (≈ 6.76 µg/mL)
MIC [26]: 64 µM (≈ 144 µg/mL)
Compound: CC[C@H](C)[C@H](NC(=O)[C@H](CCCN=C(N)N)NC(=O)[C@@H](N)Cc1c[nH]c2ccccc12)C(=O)N[C@@H](CCCN=C(N)N)C(=O)N[C@@H](CCCN=C(N)N)C(=O)N[C@@H](CCCN=C(N)N)C(=O)N1CCC[C@H]1C(=O)N1CCC[C@H]1C(=O)N[C@@H](CCCN=C(N)N)C(=O)N[C@@H](CC(C)C)C(=O)N1CCC[C@H]1C(=O)N[C@@H](CCCN=C(N)N)C(=O)N1CCC[C@H]1C(=O)N[C@@H](CCCN=C(N)N)C(=O)N[C@@H](Cc1c[nH]c2ccccc12)C(=O)N[C@@H](CCCN=C(N)N)C(=O)O [WRIRRRPPRLPRPRWR]
